From US20260265251A1 (priority 2023, published 2026)

Key:
[1] = tested on: SK-MEL-3 cells; assay: SK-MEL-3 cell proliferation assay; assay type: cell-based; conditions: Homo sapiens, SK-MEL3; SK-MEL-3 cells, 72 hours, CellTiter-Glo; read-out: SK-MEL-3 IC50
[2] = tested on: A2058 cells; assay: A2058 cell proliferation assay; assay type: cell-based; conditions: Homo sapiens, 96 hours, CellTiter-Glo

Row | SMILES | IC50 [1] [nM] | IC50 [2] [nM]
1 | O=c1[nH]c2cc3cc(-c4cnn(C(F)F)c4Br)ccc3nc2[nH]1 [Example 32, 7-(5-bromo-1-(difluoromethyl)-1H-pyrazol-4-yl)-1,3-dihydro-2H-imidazo[4,5-b]quinolin-2-one] | 0.05 | 0.3
2 | O=c1[nH]c2cc3cc(-c4onc(C(F)F)c4Cl)ccc3nc2[nH]1 [Example 34, 7-(4-chloro-3-(difluoromethyl)isoxazol-5-yl)-1,3-dihydro-2H-imidazo[4,5-b]quinolin-2-one] | 0.09 | 0.19
3 | O=c1[nH]c2cc3cc(-c4ccc(C(F)F)nc4Cl)ccc3nc2[nH]1 [Example 35, 7-(2-chloro-6-(difluoromethyl)pyridin-3-yl)-1,3-dihydro-2H-imidazo[4,5-b]quinolin-2-one] | 0.6 | 5.2
4 | O=c1[nH]c2cc3cc(-c4ccc(C(F)F)cc4Cl)ccc3nc2[nH]1 [Example 36, 7-(2-chloro-4-(difluoromethyl)phenyl)-1,3-dihydro-2H-imidazo[4,5-b]quinolin-2-one] | 0.9 | 5.2
5 | Cc1c(-c2ccc3nc4[nH]c(=O)[nH]c4cc3c2)cnn1C(F)F [Example 44, 7-(1-(difluoromethyl)-5-methyl-1H-pyrazol-4-yl)-1,3-dihydro-2H-imidazo[4,5-b]quinolin-2-one] | 0.07 | 0.17
6 | O=c1[nH]c2cc3c(nc2[nH]1)CCN(c1ccc(C(F)(F)F)nc1Cl)C3 [Example 48, 7-(2-chloro-6-(trifluoromethyl)pyridin-3-yl)-1,3,5,6,7,8-hexahydro-2H-imidazo[4,5-b][1,6]naphthyridin-2-one] | 5.2 | 74.6
7 | O=c1[nH]c2cc3c(nc2[nH]1)CCN(c1cnn(C(F)F)c1Cl)C3 [Example 50, 7-(5-chloro-1-(difluoromethyl)-1H-pyrazol-4-yl)-1,3,5,6,7,8-hexahydro-2H-imidazo[4,5-b][1,6]naphthyridin-2-one] | 1.2 | 7.5
8 | O=c1[nH]c2cc3c(nc2[nH]1)CCN(c1cccc(C(F)(F)F)n1)C3 [Example 58, 7-(6-(trifluoromethyl)pyridin-2-yl)-1,3,5,6,7,8-hexahydro-2H-imidazo[4,5-b][1,6]naphthyridin-2-one] | 0.3 | 1.2
9 | O=c1[nH]c2cc3c(Cl)c(-c4cnn(C(F)F)c4Cl)ccc3nc2[nH]1 [Example 86, 8-chloro-7-(5-chloro-1-(difluoromethyl)-1H-pyrazol-4-yl)-1,3-dihydro-2H-imidazo[4,5-b]quinolin-2-one] | 0.09 | 0.9
